Reference: patent US9820972B2, “Antiviral compounds highly effective as HCV-NS5A inhibitor” (priority 2013, dated 2017)

These molecules were tested on GT-1a of NS5A Replicon (assay: HCV double reporter gene (Renilla luciferase) replicon assay, GT-1a). Settings: Hepatitis C virus, GT1A, GT-1a replicon; class symbols; read-out: EC50 For GT-1a of NS5A Replicon.
Format: cell-based, Hepatitis C virus (HCV)
Procedure: Antiviral Assay for Inhibition Activity (EC50):
The study is completed by a new constructed double reporter genes replicon assay system, the capacity of viral replicon in infected cell is determined by detecting the reporter gene Renilla luciferase. The relationship of reporter genes, HCV RNA replicon and viral proteins is well linear. 8 gradient concentrations for 2-fold dilution, 3 wells, 3 times repetition and 1 or 2 control drugs are set to finally determine EC50 of compound.
THF was distilled from sodium metal and benzophenone. DCM, pentane and hexane were distilled form calcium hydride. Special raw material and intermediate in the invention were ordered by contract synthesis from Zannan SciTech Co., Let in China, others reagents were purchased from Shanghai reagent company, Aldrich, Acros etc. As intermediates or products during the synthesis is not required for the reaction and other tests the next step, the synthesis is repeated until a sufficient number of times. The invention of the prepared compounds of […] (HCV NS5A) inhibitory activity test was performed by CRO service units such as WuXi AppTec etc.

| Compound | EC50 [nM] |
| --- | --- |
| COC(=O)N[C@@H](C(=O)N1CC=C[C@H]1c1nc(-c2ccc(-c3ccc(-c4cnc([C@@H]5CC6(CN5C(=O)[C@H](NC(=O)OC)c5ccccc5)OCCO6)[nH]4)cc3)cc2)c[nH]1)c1ccccc1 [Compound 6dv] | 0.001 to 0.999 |
| COC(=O)N[C@H](C(=O)N1CC2(C[C@H]1c1ncc(-c3ccc(-c4ccc(-c5c[nH]c([C@@H]6C=CCN6C(=O)[C@H](NC(=O)OC)c6ccccc6)n5)cc4)cc3)[nH]1)OCCO2)C(C)C [Compound 6dw] | 0.001 to 0.999 |
| COC(=O)N[C@@H](C(=O)N1CC=C[C@H]1c1ncc(-c2ccc(-c3ccc(-c4c[nH]c([C@@H]5CCCN5C(=O)[C@H](NC(=O)OC)c5ccccc5)n4)cc3)cc2)[nH]1)c1ccccc1 [Compound 6dz] | 0.001 to 0.999 |
| COC(=O)N[C@H](C(=O)N1CN(C(=O)N2Cc3cc4c(cc3C2)OCO4)CC1c1nc(-c2cc3sc(-c4ccc(-c5c[nH]c([C@@H]6CCCN6C(=O)[C@@H](NC(=O)OC)C(C)C)n5)cc4)cc3s2)c[nH]1)C(C)C (some centres unmarked) [Compound 6fa] | 0.001 to 0.999 |
| COC(=O)NC(C(=O)N1CCC[C@H]1c1nc(-c2cc3sc(-c4ccc(-c5c[nH]c(C6CN(C(=O)N7Cc8cc9c(cc8C7)OCO9)CN6C(=O)[C@@H](NC(=O)OC)C(C)C)n5)cc4)cc3s2)c[nH]1)c1ccccc1 (some centres unmarked) [Compound 6fb] | 0.001 to 0.999 |
| COC(=O)N[C@@H](C(=O)N1CC=CC1c1nc(-c2ccc(-c3cc4sc(-c5c[nH]c(C6C=CCN6C(=O)[C@H](NC(=O)OC)c6ccccc6)n5)cc4s3)cc2)c[nH]1)c1ccccc1 (some centres unmarked) [Compound 6fe] | 0.001 to 0.999 |
| COC(=O)N[C@@H](C(=O)N1CC=C[C@H]1c1ncc(-c2ccc(-c3cc4sc(-c5cnc([C@@H]6CCCN6C(=O)[C@H](NC(=O)OC)c6ccccc6)[nH]5)cc4s3)cc2)[nH]1)c1ccccc1 [Compound 6fh] | 0.001 to 0.999 |
| COC(=O)N[C@H](C(=O)N1CCC[C@H]1c1ncc(-c2cc3sc(-c4ccc(-c5cnc([C@@H]6C=CCN6C(=O)[C@H](NC(=O)OC)c6ccccc6)[nH]5)cc4)cc3s2)[nH]1)C(C)C [Compound 6fj] | 0.001 to 0.999 |
| COC(=O)N[C@@H](C(=O)N1CC=C[C@H]1c1ncc(-c2cc3sc(-c4ccc(-c5cnc([C@@H]6CCCN6C(=O)[C@H](NC(=O)OC)c6ccccc6)[nH]5)cc4)cc3s2)[nH]1)c1ccccc1 [Compound 6fk] | 0.001 to 0.999 |
| COC(=O)N[C@H](C(=O)N1CC=C[C@H]1c1ncc(-c2cc3sc(-c4ccc(-c5cnc([C@@H]6CCCN6C(=O)[C@@H](NC(=O)OC)C(C)C)[nH]5)cc4)cc3s2)[nH]1)C(C)C [Compound 6fn] | 0.001 to 0.999 |
| COC(=O)N[C@H](C(=O)N1CC=CC1c1ncc(-c2ccc(-c3csc4c(-c5c[nH]c([C@@H]6CCCN6C(=O)[C@@H](NC(=O)OC)C(C)C)n5)csc34)cc2)[nH]1)C(C)C (some centres unmarked) [Compound 6fq] | 0.001 to 0.999 |
| COC(=O)N[C@H](C(=O)N1CCC[C@H]1c1nc(-c2csc3c(-c4ccc(-c5cnc(C6C=CCN6C(=O)[C@H](NC(=O)OC)c6ccccc6)[nH]5)cc4)csc23)c[nH]1)C(C)C (some centres unmarked) [Compound 6fr] | 0.001 to 0.999 |
| COC(=O)N[C@@H](C(=O)N1CC=CC1c1ncc(-c2ccc(-c3csc4c(-c5c[nH]c([C@@H]6CCCN6C(=O)[C@H](NC(=O)OC)c6ccccc6)n5)csc34)cc2)[nH]1)c1ccccc1 (some centres unmarked) [Compound 6fs] | 0.001 to 0.999 |
| COC(=O)N[C@H](C(=O)N1CC=CC1c1ncc(-c2ccc(-c3csc4c(-c5c[nH]c([C@@H]6CCCN6C(=O)[C@H](NC(=O)OC)c6ccccc6)n5)csc34)cc2)[nH]1)C(C)C (some centres unmarked) [Compound 6ft] | 0.001 to 0.999 |
| COC(=O)NC(C(=O)N1CC=C[C@H]1c1ncc(-c2ccc(-c3cc4sc(-c5cnc([C@@H]6CCCN6C(=O)[C@H](NC(=O)OC)c6ccccc6)[nH]5)cc4o3)cc2)[nH]1)c1ccccc1 (some centres unmarked) [Compound 6fw] | 0.001 to 0.999 |
| COC(=O)N[C@@H](C(=O)N1CC=C[C@H]1c1ncc(-c2ccc(-c3cc4sc(-c5cnc([C@@H]6CCCN6C(=O)[C@H](NC(=O)OC)c6ccccc6)[nH]5)cc4[nH]3)cc2)[nH]1)c1ccccc1 [Compound 6fx] | 0.001 to 0.999 |
| COC(=O)N[C@H](C(=O)N1CC=C[C@H]1c1nc(-c2csc3c(-c4ccc(-c5c[nH]c(C6CCCN6C(=O)[C@H](NC(=O)OC)c6ccccc6)n5)cc4)csc23)c[nH]1)C(C)C (some centres unmarked) [Compound 6fy] | 0.001 to 0.999 |
| CC(C)[C@H](NC(=O)OC1CCCC1)C(=O)N1CCC[C@H]1c1nc(-c2ccc(-c3ccc(-c4cnc([C@@H]5C[C@@H](OC(=O)N6Cc7ccc8c(c7C6)OCO8)CN5C(=O)[C@@H](NC(=O)OC5CCCC5)C(C)C)[nH]4)cc3)cc2)c[nH]1 [Compound 6h] | > 50 |
| COC(=O)N[C@H](C(=O)N1C[C@H](OC(=O)N2Cc3cc4c(cc3C2)OCO4)CC1c1ncc(-c2ccc(-c3ccc(-c4c[nH]c([C@@H]5CCCN5C(=O)[C@@H](NC(=O)OC)C(C)C)n4)cc3)cc2)[nH]1)C(C)C (some centres unmarked) [Compound 6i] | 0.001 to 0.999 |
| CC(C)[C@H](NC(=O)OC(C)(C)C)C(=O)N1CCC[C@H]1c1nc(-c2ccc(-c3ccc(-c4cnc([C@@H]5C[C@@H](OC(=O)N6Cc7cc8c(cc7C6)OCO8)CN5C(=O)[C@@H](NC(=O)OC(C)(C)C)C(C)C)[nH]4)cc3)cc2)c[nH]1 [Compound 6j] | > 50 |
| CC(C)(C)OC(=O)N[C@H](C(=O)N1CCC[C@H]1c1nc(-c2ccc(-c3ccc(-c4cnc([C@@H]5C[C@@H](OC(=O)N6Cc7cc8c(cc7C6)OCO8)CN5C(=O)[C@@H](NC(=O)OC(C)(C)C)C(C)(C)C)[nH]4)cc3)cc2)c[nH]1)C(C)(C)C [Compound 6k] | > 50 |
| COC(=O)N[C@H](C(=O)N1CCC[C@H]1c1nc(-c2ccc(-c3ccc(-c4cnc([C@@H]5C[C@@H](OC(=O)N6Cc7cc8c(cc7C6)OCO8)CN5C(=O)[C@@H](NC(=O)OC(C)(C)C)C(C)C)[nH]4)cc3)cc2)c[nH]1)C(C)C [Compound 6m] | 1 to 49.9 |
| CC(C)[C@H](NC(=O)OC1CCCC1)C(=O)N1CCC[C@H]1c1nc(-c2ccc(-c3ccc(-c4cnc([C@@H]5C[C@@H](OC(=O)N6Cc7cc8c(cc7C6)OCO8)CN5C(=O)[C@@H](NC(=O)OC5CCCC5)C(C)C)[nH]4)cc3)cc2)c[nH]1 [Compound 6r] | > 50 |
| COC(=O)N[C@H](C(=O)N1CCC[C@H]1c1nc(-c2ccc(-c3ccc(-c4cnc([C@@H]5C[C@@H](OC(=O)N6Cc7cccc(F)c7C6)CN5C(=O)[C@@H](NC(=O)OC)C(C)C)[nH]4)cc3)cc2)c[nH]1)C(C)C [Compound 6s] | 0.001 to 0.999 |
| CC(C)[C@H](NC(=O)OC(C)(C)C)C(=O)N1C[C@H](OC(=O)N2Cc3cccc(F)c3C2)CC1c1ncc(-c2ccc(-c3ccc(-c4c[nH]c([C@@H]5CCCN5C(=O)[C@@H](NC(=O)OC(C)(C)C)C(C)C)n4)cc3)cc2)[nH]1 (some centres unmarked) [Compound 6t] | > 50 |
| COC(=O)N[C@H](C(=O)N1CCC[C@H]1c1nc(-c2ccc(-c3ccc(-c4cnc([C@@H]5C[C@@H](OC(=O)N6Cc7cccc(F)c7C6)CN5C(=O)[C@@H](NC(=O)OC(C)(C)C)C(C)C)[nH]4)cc3)cc2)c[nH]1)C(C)C [Compound 6u] | 1 to 49.9 |
| CC(C)[C@H](NC(=O)OC1CCCC1)C(=O)N1CCC[C@H]1c1nc(-c2ccc(-c3ccc(-c4cnc([C@@H]5C[C@@H](OC(=O)N6Cc7cccc(F)c7C6)CN5C(=O)[C@@H](NC(=O)OC5CCCC5)C(C)C)[nH]4)cc3)cc2)c[nH]1 [Compound 6v] | > 50 |
| COC(=O)N[C@H](C(=O)N1CCCC1c1nc(-c2ccc(-c3ccc(-c4c[nH]c([C@@H]5CCCN5C(=O)C5(NC(=O)OC)CC5)n4)cc3)cc2)c[nH]1)C(C)C (some centres unmarked) [Compound 6y] | 0.001 to 0.999 |
| COC(=O)N[C@H](C(=O)N1CCCC1c1nc(-c2ccc(-c3ccc(-c4c[nH]c([C@@H]5CCCN5C(=O)C5(NC(=O)OC)CCCC5)n4)cc3)cc2)c[nH]1)C(C)C (some centres unmarked) [Compound 6z] | 0.001 to 0.999 |

Same assay, conditions: Hepatitis C virus, GT1A, read-out: EC50 For GT-1a of NS5A Replicon

| Compound | EC50 [nM] |
| --- | --- |
| COC(=O)N[C@H](C(=O)N1C[C@H](OC(=O)N2Cc3ccc4c(c3C2)OCO4)C[C@H]1c1nc(-c2ccc(-c3ccc(-c4cnc([C@@H]5C[C@@H](OC(=O)N6Cc7ccc8c(c7C6)OCO8)CN5C(=O)[C@@H](NC(=O)OC)C(C)C)[nH]4)cc3)cc2)c[nH]1)C(C)C [Compound 6e] | > 50 |
| CC(C)[C@H](NC(=O)OC(C)(C)C)C(=O)N1C[C@H](OC(=O)N2Cc3ccc4c(c3C2)OCO4)CC1c1ncc(-c2ccc(-c3ccc(-c4c[nH]c([C@@H]5C[C@@H](OC(=O)N6Cc7ccc8c(c7C6)OCO8)CN5C(=O)[C@@H](NC(=O)OC(C)(C)C)C(C)C)n4)cc3)cc2)[nH]1 (some centres unmarked) [Compound 6f] | > 50 |
| CC(C)[C@H](NC(=O)OC1CCCC1)C(=O)N1C[C@H](OC(=O)N2Cc3ccc4c(c3C2)OCO4)C[C@H]1c1nc(-c2ccc(-c3ccc(-c4cnc([C@@H]5C[C@@H](OC(=O)N6Cc7ccc8c(c7C6)OCO8)CN5C(=O)[C@@H](NC(=O)OC5CCCC5)C(C)C)[nH]4)cc3)cc2)c[nH]1 [Compound 6g] | > 50 |
| COC(=O)N[C@H](C(=O)N1C[C@H](OC(=O)N2Cc3cc4c(cc3C2)OCO4)C[C@H]1c1nc(-c2ccc(-c3ccc(-c4cnc([C@@H]5C[C@@H](OC(=O)N6Cc7cc8c(cc7C6)OCO8)CN5C(=O)[C@@H](NC(=O)OC)C(C)C)[nH]4)cc3)cc2)c[nH]1)C(C)C [Compound 6n] | > 50 |
| CC(C)[C@H](NC(=O)OC(C)(C)C)C(=O)N1C[C@H](OC(=O)N2Cc3cc4c(cc3C2)OCO4)C[C@H]1c1nc(-c2ccc(-c3ccc(-c4cnc([C@@H]5C[C@@H](OC(=O)N6Cc7cc8c(cc7C6)OCO8)CN5C(=O)[C@@H](NC(=O)OC(C)(C)C)C(C)C)[nH]4)cc3)cc2)c[nH]1 [Compound 6p] | > 50 |
| CC(C)[C@H](NC(=O)OC1CCCC1)C(=O)N1C[C@H](OC(=O)N2Cc3cc4c(cc3C2)OCO4)C[C@H]1c1nc(-c2ccc(-c3ccc(-c4cnc([C@@H]5C[C@@H](OC(=O)N6Cc7cc8c(cc7C6)OCO8)CN5C(=O)[C@@H](NC(=O)OC5CCCC5)C(C)C)[nH]4)cc3)cc2)c[nH]1 [Compound 6q] | > 50 |
